Data as given in patent US3957987A, “Compositions containing a carbonamidoquinoxaline-di-N-oxide and method of using same” (Bayer Aktiengesellschaft, priority 1971, dated 1976).
In brackets after ≈: the same amount, converted by molar mass.

test system: Bordetella bronchiseptica; test: Minimum inhibitory concentration, Bordetella bronchiseptica; assay type: cell-based; details: not given

Structure (SMILES)	MIC [µg/mL]
COC(=O)NN=Cc1c(C(=O)N2CCCCC2)[n+]([O-])c2ccccc2[n+]1[O-] [Example 10]	100 (≈ 268 µM)
CCN(CC)C(=O)c1c(C=NNC(=O)OC)[n+]([O-])c2ccccc2[n+]1[O-] [Example 11]	100 (≈ 277 µM)
COC(=O)NN=Cc1c(C(=O)N2CCCC2)[n+]([O-])c2ccccc2[n+]1[O-] [Example 12]	100 (≈ 278 µM)
COC(=O)NN=Cc1c(C(=O)NCCO)[n+]([O-])c2ccccc2[n+]1[O-] [Example 14]	100 (≈ 286 µM)

test system: Escherichia coli C 165; test: Minimum inhibitory concentration in vitro, Escherichia coli C 165; assay type: cell-based; details: C165
Description: (§1) As representative of the spectrum of antimicrobial activity for these compounds, the following representative minimum inhibitory concentrations shown on Tables A, B and C can be noted:
(§2) Minimum Inhibitory Concentrations In Vitro, in μg/ml of Medium

Structure (SMILES)	MIC [µg/mL]
COC(=O)NN=Cc1c(C(=O)N2CCCC2)[n+]([O-])c2ccccc2[n+]1[O-] [Example 12]	100 (≈ 278 µM)

test system: Mycobacterium species; test: Minimum inhibitory concentration, Mycobacterium species; assay type: cell-based; details: not given
Description: (§3) As representative of the spectrum of antimicrobial activity for these compounds, the following representative minimum inhibitory concentrations shown on Tables A, B and C can be noted: […]

Structure (SMILES)	MIC [µg/mL]
COC(=O)NN=Cc1c(C(=O)N2CCCCC2)[n+]([O-])c2ccccc2[n+]1[O-] [Example 10]	100 (≈ 268 µM)
CCN(CC)C(=O)c1c(C=NNC(=O)OC)[n+]([O-])c2ccccc2[n+]1[O-] [Example 11]	100 (≈ 277 µM)
COC(=O)NN=Cc1c(C(=O)N2CCCC2)[n+]([O-])c2ccccc2[n+]1[O-] [Example 12]	100 (≈ 278 µM)

test system: Staphylococcus aureus 133; test: Minimum inhibitory concentration in vitro, Staphylococcus aureus 133; assay type: cell-based; details: not given
Description: as §1, §2

Structure (SMILES)	MIC [µg/mL]
COC(=O)NN=Cc1c(C(=O)N2CCCCC2)[n+]([O-])c2ccccc2[n+]1[O-] [Example 10]	100 (≈ 268 µM)
CCN(CC)C(=O)c1c(C=NNC(=O)OC)[n+]([O-])c2ccccc2[n+]1[O-] [Example 11]	100 (≈ 277 µM)
COC(=O)NN=Cc1c(C(=O)N2CCCC2)[n+]([O-])c2ccccc2[n+]1[O-] [Example 12]	10 (≈ 27.8 µM)
COC(=O)NN=Cc1c(C(=O)NCCO)[n+]([O-])c2ccccc2[n+]1[O-] [Example 14]	100 (≈ 286 µM)

test system: Streptococcus pyogenes; test: Minimum inhibitory concentration in vitro, Streptococcus pyogenes; assay type: cell-based; details: not given
Description: as §1, §2

Structure (SMILES)	MIC [µg/mL]
COC(=O)NN=Cc1c(C(=O)N2CCCCC2)[n+]([O-])c2ccccc2[n+]1[O-] [Example 10]	100 (≈ 268 µM)
CCN(CC)C(=O)c1c(C=NNC(=O)OC)[n+]([O-])c2ccccc2[n+]1[O-] [Example 11]	100 (≈ 277 µM)
COC(=O)NN=Cc1c(C(=O)N2CCCC2)[n+]([O-])c2ccccc2[n+]1[O-] [Example 12]	100 (≈ 278 µM)
COC(=O)NN=Cc1c(C(=O)NCCO)[n+]([O-])c2ccccc2[n+]1[O-] [Example 14]	100 (≈ 286 µM)

test system: Mycoplasma S6; test: Minimum inhibitory concentration, Mycoplasma S6; assay type: cell-based; details: not given

Structure (SMILES)	MIC [µg/mL]
COC(=O)NN=Cc1c(C(=O)N2CCCCC2)[n+]([O-])c2ccccc2[n+]1[O-] [Example 10]	10 (≈ 26.8 µM)
CCN(CC)C(=O)c1c(C=NNC(=O)OC)[n+]([O-])c2ccccc2[n+]1[O-] [Example 11]	10 (≈ 27.7 µM)
COC(=O)NN=Cc1c(C(=O)N2CCCC2)[n+]([O-])c2ccccc2[n+]1[O-] [Example 12]	10 (≈ 27.8 µM)
COC(=O)NN=Cc1c(C(=O)NCCO)[n+]([O-])c2ccccc2[n+]1[O-] [Example 14]	100 (≈ 286 µM)

test system: Alcaligenes faecalis ATCC; test: Minimum inhibitory concentration, Alcaligenes faecalis ATCC; assay type: cell-based; details: not given

Structure (SMILES)	MIC [µg/mL]
COC(=O)NN=Cc1c(C(=O)N2CCCCC2)[n+]([O-])c2ccccc2[n+]1[O-] [Example 10]	100 (≈ 268 µM)
CCN(CC)C(=O)c1c(C=NNC(=O)OC)[n+]([O-])c2ccccc2[n+]1[O-] [Example 11]	100 (≈ 277 µM)
COC(=O)NN=Cc1c(C(=O)N2CCCC2)[n+]([O-])c2ccccc2[n+]1[O-] [Example 12]	100 (≈ 278 µM)
COC(=O)NN=Cc1c(C(=O)NCCO)[n+]([O-])c2ccccc2[n+]1[O-] [Example 14]	100 (≈ 286 µM)

test system: Aeromonas liquefaciens; test: Minimum inhibitory concentration, Aeromonas liquefaciens; assay type: cell-based; details: Aeromonas hydrophila

Structure (SMILES)	MIC [µg/mL]
COC(=O)NN=Cc1c(C(=O)N2CCCCC2)[n+]([O-])c2ccccc2[n+]1[O-] [Example 10]	100 (≈ 268 µM)
CCN(CC)C(=O)c1c(C=NNC(=O)OC)[n+]([O-])c2ccccc2[n+]1[O-] [Example 11]	100 (≈ 277 µM)
COC(=O)NN=Cc1c(C(=O)N2CCCC2)[n+]([O-])c2ccccc2[n+]1[O-] [Example 12]	100 (≈ 278 µM)
COC(=O)NN=Cc1c(C(=O)NCCO)[n+]([O-])c2ccccc2[n+]1[O-] [Example 14]	100 (≈ 286 µM)

test system: Clostridium tetani; test: microbe, parasite or virus in culture; assay type: cell-based; details: read-out: minimum inhibitory concentration

Structure (SMILES)	MIC [µg/mL]
COC(=O)NN=Cc1c(C(=O)N2CCCCC2)[n+]([O-])c2ccccc2[n+]1[O-] [Example 10]	10 (≈ 26.8 µM)
CCN(CC)C(=O)c1c(C=NNC(=O)OC)[n+]([O-])c2ccccc2[n+]1[O-] [Example 11]	10 (≈ 27.7 µM)
COC(=O)NN=Cc1c(C(=O)N2CCCC2)[n+]([O-])c2ccccc2[n+]1[O-] [Example 12]	10 (≈ 27.8 µM)
COC(=O)NN=Cc1c(C(=O)NCCO)[n+]([O-])c2ccccc2[n+]1[O-] [Example 14]	100 (≈ 286 µM)

test system: Mycoplasma gran; test: Minimum inhibitory concentration, Mycoplasma gran; assay type: cell-based; details: not given

Structure (SMILES)	MIC [µg/mL]
COC(=O)NN=Cc1c(C(=O)N2CCCCC2)[n+]([O-])c2ccccc2[n+]1[O-] [Example 10]	10 (≈ 26.8 µM)
CCN(CC)C(=O)c1c(C=NNC(=O)OC)[n+]([O-])c2ccccc2[n+]1[O-] [Example 11]	10 (≈ 27.7 µM)
COC(=O)NN=Cc1c(C(=O)N2CCCC2)[n+]([O-])c2ccccc2[n+]1[O-] [Example 12]	10 (≈ 27.8 µM)
COC(=O)NN=Cc1c(C(=O)NCCO)[n+]([O-])c2ccccc2[n+]1[O-] [Example 14]	100 (≈ 286 µM)

test system: Mycoplasma MS; test: Minimum inhibitory concentration, Mycoplasma MS; assay type: cell-based; details: not given
Description: as §3

Structure (SMILES)	MIC [µg/mL]
COC(=O)NN=Cc1c(C(=O)N2CCCCC2)[n+]([O-])c2ccccc2[n+]1[O-] [Example 10]	100 (≈ 268 µM)
CCN(CC)C(=O)c1c(C=NNC(=O)OC)[n+]([O-])c2ccccc2[n+]1[O-] [Example 11]	100 (≈ 277 µM)
COC(=O)NN=Cc1c(C(=O)N2CCCC2)[n+]([O-])c2ccccc2[n+]1[O-] [Example 12]	100 (≈ 278 µM)

test system: Klebsiella 63; test: Minimum inhibitory concentration in vitro, Klebsiella 63; assay type: cell-based; details: not given
Description: as §1, §2

Structure (SMILES)	MIC [µg/mL]
COC(=O)NN=Cc1c(C(=O)N2CCCCC2)[n+]([O-])c2ccccc2[n+]1[O-] [Example 10]	100 (≈ 268 µM)
CCN(CC)C(=O)c1c(C=NNC(=O)OC)[n+]([O-])c2ccccc2[n+]1[O-] [Example 11]	100 (≈ 277 µM)
COC(=O)NN=Cc1c(C(=O)N2CCCC2)[n+]([O-])c2ccccc2[n+]1[O-] [Example 12]	100 (≈ 278 µM)

test system: Pasteurella multocida ATCC; test: Minimum inhibitory concentration, Pasteurella multocida ATCC; assay type: cell-based; details: not given

Structure (SMILES)	MIC [µg/mL]
COC(=O)NN=Cc1c(C(=O)N2CCCCC2)[n+]([O-])c2ccccc2[n+]1[O-] [Example 10]	1 (≈ 2.68 µM)
CCN(CC)C(=O)c1c(C=NNC(=O)OC)[n+]([O-])c2ccccc2[n+]1[O-] [Example 11]	1 (≈ 2.77 µM)
COC(=O)NN=Cc1c(C(=O)N2CCCC2)[n+]([O-])c2ccccc2[n+]1[O-] [Example 12]	1 (≈ 2.78 µM)
COC(=O)NN=Cc1c(C(=O)NCCO)[n+]([O-])c2ccccc2[n+]1[O-] [Example 14]	100 (≈ 286 µM)

test system: Clostridium botulinum; test: microbe, parasite or virus in culture; assay type: cell-based; details: read-out: minimum inhibitory concentration

Structure (SMILES)	MIC [µg/mL]
COC(=O)NN=Cc1c(C(=O)N2CCCCC2)[n+]([O-])c2ccccc2[n+]1[O-] [Example 10]	10 (≈ 26.8 µM)
CCN(CC)C(=O)c1c(C=NNC(=O)OC)[n+]([O-])c2ccccc2[n+]1[O-] [Example 11]	10 (≈ 27.7 µM)
COC(=O)NN=Cc1c(C(=O)N2CCCC2)[n+]([O-])c2ccccc2[n+]1[O-] [Example 12]	10 (≈ 27.8 µM)
COC(=O)NN=Cc1c(C(=O)NCCO)[n+]([O-])c2ccccc2[n+]1[O-] [Example 14]	100 (≈ 286 µM)

test system: Klebsiella 8085; test: Minimum inhibitory concentration in vitro, Klebsiella 8085; assay type: cell-based; details: not given
Description: as §1, §2

Structure (SMILES)	MIC [µg/mL]
COC(=O)NN=Cc1c(C(=O)N2CCCCC2)[n+]([O-])c2ccccc2[n+]1[O-] [Example 10]	100 (≈ 268 µM)
CCN(CC)C(=O)c1c(C=NNC(=O)OC)[n+]([O-])c2ccccc2[n+]1[O-] [Example 11]	100 (≈ 277 µM)
COC(=O)NN=Cc1c(C(=O)N2CCCC2)[n+]([O-])c2ccccc2[n+]1[O-] [Example 12]	100 (≈ 278 µM)
COC(=O)NN=Cc1c(C(=O)NCCO)[n+]([O-])c2ccccc2[n+]1[O-] [Example 14]	100 (≈ 286 µM)
